Read-outs that look alike come from different tables or passages of the source.
Columns and labels:
[1] = Experimental: 2.5 mL solutions of each excipient with each concentration were prepared by serial dilution of the saturated solution. One vial for each excipient experiment was prepared with 2.5 ml water. To each vial, 50 mg olaparib was added, sonicated, vortexed, and shaken at 40° C. for over 20 hr. After agitation at 25° C., the suspensions were filtered to obtain clear solutions. The clear solutions were analyzed using HPLC.
2.5 mL solutions of each excipient with each concentration were prepared by serial dilution of the 600 mg/mL solution. One vial for each excipient experiment was prepared with 2.5 mL water. To each vial, 50 mg olaparib was added, sonicated, vortexed, and shaken at 40° C. for over 20 hours. After agitation at 25° C., the suspensions were filtered to obtain clear solutions. The clear solutions were analyzed using HPLC.

[2] = cited from earlier work
[3] = format: physicochemical
Experimental: Sulfobutylether-β-cyclodextrin-enabled olaparib solubility enhancement experiments were conducted at various olaparib and sulfobutylether-β-cyclodextrin concentrations (FIG. 5). The dissolved quantity of olaparib increased when the concentration of sulfobutylether-β-cyclodextrin increased, indicating the formation of a 1:1 complex between the drug and solubilizer. The apparent complexation constant (K1:1) was calculated to be 432.4 M^−1 at 22° C.
This would be equivalent to >10 and >50 molar and weight ratios, respectively.
Sulfobutylether-β-cyclodextrin-enabled rucaparib solubility enhancement experiments were conducted at various rucaparib and sulfobutylether-β-cyclodextrin concentrations (FIG. 6). The dissolved quantity of rucaparib increased when the concentration of sulfobutylether-β-cyclodextrin increased, indicating the formation of a 1:1 complex between the drug and solubilizer. The apparent complexation constant (K1:1) was calculated to be 596.7 M^−1 at 22° C.

[4] = direct injection of 30-40% (w/v), preclinical studies; cited from earlier work

| Compound | Solubility Enhancement Factor [1] | olaparib water solubility improvement by excipient [1] | apparent complexation constant (K1:1) [3] | other results |
| --- | --- | --- | --- | --- |
| O=C(c1cc(Cc2n[nH]c(=O)c3ccccc23)ccc1F)N1CCN(C(=O)C2CC2)CC1 [olaparib] |  |  | 432.4 M⁻¹ | water solubility [2]: < 0.07 mg/mL; equivalent weight ratio sulfobutylether-β-cyclodextrin to olaparib ([3]; to achieve 5 mg/ml olaparib): > 50 |
| sulfobutylether-β-cyclodextrin [Sulfobutylether β-cyclodextrin] |  |  |  | hypertonicity-related adverse effects [4]: did not lead to any hypertonicity-related adverse effects |
| OC[C@@H](O)[C@@H](O)[C@H](O)[C@H](O)CO [D-mannitol] | 1 |  |  | saturated water solubility ([2]; 25° C.): 216 mg/mL |
| CNCc1ccc(-c2[nH]c3cc(F)cc4c3c2CCNC4=O)cc1 [rucaparib] |  |  | 596.7 M⁻¹ | water solubility ([2]; across the physiological pH range): around 1 mg/mL |

More lines, main results first:

| Solubility Enhancement Factor [1] | olaparib water solubility improvement by excipient [1] | apparent complexation constant (K1:1) [3] | Compound | other results |
| --- | --- | --- | --- | --- |
| 10 | 10 fold |  | OC[C@H]1O[C@@H]2O[C@H]3[C@H](O)[C@@H](O)[C@@H](O[C@H]4[C@H](O)[C@@H](O)[C@@H](O[C@H]5[C@H](O)[C@@H](O)[C@@H](O[C@H]6[C@H](O)[C@@H](O)[C@@H](O[C@H]7[C@H](O)[C@@H](O)[C@@H](O[C@H]8[C@H](O)[C@@H](O)[C@@H](O[C@H]1[C@H](O)[C@H]2O)O[C@@H]8CO)O[C@@H]7CO)O[C@@H]6CO)O[C@@H]5CO)O[C@@H]4CO)O[C@@H]3CO [β-cyclodextrin] |  |
| 324 | more than 100 fold |  | CC(O)COC[C@H]1O[C@@H]2O[C@H]3[C@H](O)[C@@H](O)[C@@H](O[C@H]4[C@H](O)[C@@H](O)[C@@H](O[C@H]5[C@H](O)[C@@H](O)[C@@H](O[C@H]6[C@H](O)[C@@H](O)[C@@H](O[C@H]7[C@H](O)[C@@H](O)[C@@H](O[C@H]8[C@H](O)[C@@H](O)[C@@H](O[C@H]1[C@H](O)[C@H]2O)O[C@@H]8COCC(C)O)O[C@@H]7COCC(C)O)O[C@@H]6COCC(C)O)O[C@@H]5COCC(C)O)O[C@@H]4COCC(C)O)O[C@@H]3COCC(C)O (stereo partly drawn) [HP-β-cyclodextrin, 2-hydroxypropyl-β-cyclodextrin] |  |
